How the values were obtained:
[1] = test system: puccinia recondite-causing germs; assay: Puccinia Recondite control effect test (spray on wheat); assay type: in vivo
[2] = test system: puccinia recondite-causing germs; conditions: in vivo
gray mold fungi = assay: Cucumber gray mold disease control effect test; assay type: in vivo, Botrytis cinerea; conditions: 100 g/ha; spray on cotyledon cucumber; 4 days after the inoculation
Method: The compounds of the present invention were adjusted to a predetermined concentration ([…]) according to Test Example 2 in a cotyledon cucumber (variety: Sagami Hanjiro Cucumber) cultivated using a rectangular plastic pot (6 cm×6 cm), and sprayed at a ratio of 1,000 L/ha. After air-drying the spray leaves, a paper disc (8 mm in diameter) impregnated with the spore solution of gray mold fungi was placed and kept at 20° C. under high humidity conditions. On 4 days after the inoculation, a morbidity of cucumber gray mold disease was examined, and a control value was calculated by the following Equation. Control value (%)=(1−average morbidity of sprayed area/average morbidity of unsprayed area)×100
In addition, the morbidity was determined based on the following Table 12.

Septoria tritici = conditions: in vivo
Method: The severity of flag leaf and second leaf was evaluated after 50 days lapsed after the second spraying. The control value was calculated from the average severity of the flag leaf and the second leaf. Control value (%)=(1−average severity of treated area/average severity of untreated area)×100

[3] = 3.13 g/ha, spray on second leaf stage wheat, 14 days after the inoculation

| SMILES | control value [1, 3] | Control value (%) [2] | control value (gray mold fungi) | control value ([1]; in vivo) | control value (Septoria tritici) |
| --- | --- | --- | --- | --- | --- |
| COC(=O)C(O)(Cn1cncn1)c1ccc(Oc2ccc(Cl)cc2)cc1Cl (stereo not shown) [Compound I-1, methyl 2-hydroxy-2-(2-chloro-4-(4-chlorophenoxy)phenyl)-3-(1H-1,2,4-triazol-1-yl)propanoate] | 73% | 99% |  |  |  |
| COC(=O)C(O)(Cn1cncn1)c1ccc(Oc2ccccc2)cc1 (stereo not shown) [control compound B, methyl 2-hydroxy-2-(4-phenoxyphenyl)-3-(1H-1,2,4-triazol-1-yl)propanoate] |  |  | 0% |  |  |
| CC(O)(Cn1cncn1)c1ccc(Oc2ccc(Cl)cc2)cc1C(F)(F)F (stereo not shown) |  | 86% |  | 20% | 88% |
| COC(=O)C(O)(Cn1cncn1)c1ccc(Oc2cccc(Cl)c2)cc1Cl (stereo not shown) [Compound I-20, methyl 2-(2-chloro-4-(3-chlorophenoxy)phenyl)-2-hydroxy-3-(1H-1,2,4-triazol-1-yl)propanoate] | 80% |  |  |  |  |

Source: patent US10945434B2, “Azole derivative, intermediate compound, method for producing azole derivative, agricultural or horticultural chemical agent, and protective agent for industrial material” (priority 2017, dated 2021)
